ChEMBL document CHEMBL1201862, “PubChem BioAssay data set” (2004)
The source made the active and inactive calls.

Key:
[1] = Luminescence-based counterscreen assay for KLF5 inhibitors: dose response cell-based high throughput screening assay to identify cytotoxic compounds using the IEC-6 intestinal epithelial cell line. [Related pubchem assays: 1700 (Primary screen.), 1834 (Confirmation screen.), 1858 (Summary AID.), 1905 (Counterscreen.)]; type: functional
[2] = cells
[3] = inhibitors of firefly luciferase expression or activity, dose response, H4 neuroglioma cells, luminescence (AID 1990); type: functional, cell-based
[4] = Luminescence Cell-Based Dose Response HTS to Identify Inhibitors of 5'UTR Stem-Loop Driven Prion Protein mRNA Translation in H4 Neuroglioblastoma Cells. [Related pubchem assays: 1827 (Project Summary), 1813 (Primary HTS)]; type: functional
[5] = inhibitors of SNCA 5'UTR-driven reporter translation, confirmation, H4 neuroglioma cells, luminescence (AID 1988); type: functional, cell-based
[6] = cytotoxicity in HEK-293T cells, dose response, cytotoxicity control for TCR NF-kB inhibitor project, luminescence, T-cell screen hits (AID 489026); type: functional, cell-based;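 further: cells exposed to compound about 14 hours before the viability readout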
[7] = test system: INS1; experiment: beta cell apoptosis inhibitors, cytokine rescue, dose response, luminescence, retest (AID 449756); type: functional, cell-based; settings: Rattus norvegicus;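 further: cell death triggered by IL-1 beta plus TNF-alpha plus IFN-gamma mixture; protective hits raise ATP signal compared with cytokine alone wells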
[8] = A Cell Based Secondary Assay To Explore Cytotoxicity of Compounds that Sensitize Mycobacterium Tuberculosis to Beta-Lactam Antibiotics.; type: functional
[9] = inhibitors of intracellular T. cruzi replication, confirmation, NIH3T3 host cells, beta-gal luminescence (AID 2044); type: functional, cell-based;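 further: intracellular parasites grown in NIH/3T3 mouse fibroblasts as host cells; luminescent beta-galactosidase reporter signal from transgenic T. cruzi replicating inside host cells; inhibitors lower the luminescence signal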
[10] = cytotoxicity toward NIH3T3 fibroblasts, dose response, counter-screen, cell-based, ATP luminescence, mouse fibroblasts (AID 2010); type: functional;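 further: cells exposed to compound for about 90 hours before reading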
[11] = A cytotoxicity screen of small molecule inhibitors of the PhoP region in Salmonella typhi identified in the primary screen. [Related pubchem assays: 1850, 1864, 1985 ]; type: functional
[12] = target: T1, Estrogen receptor (Homo sapiens, UniProt P03372);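 further: potency for inhibiting coactivator peptide recruitment to the receptor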
T1 sequence (P03372 whole entry): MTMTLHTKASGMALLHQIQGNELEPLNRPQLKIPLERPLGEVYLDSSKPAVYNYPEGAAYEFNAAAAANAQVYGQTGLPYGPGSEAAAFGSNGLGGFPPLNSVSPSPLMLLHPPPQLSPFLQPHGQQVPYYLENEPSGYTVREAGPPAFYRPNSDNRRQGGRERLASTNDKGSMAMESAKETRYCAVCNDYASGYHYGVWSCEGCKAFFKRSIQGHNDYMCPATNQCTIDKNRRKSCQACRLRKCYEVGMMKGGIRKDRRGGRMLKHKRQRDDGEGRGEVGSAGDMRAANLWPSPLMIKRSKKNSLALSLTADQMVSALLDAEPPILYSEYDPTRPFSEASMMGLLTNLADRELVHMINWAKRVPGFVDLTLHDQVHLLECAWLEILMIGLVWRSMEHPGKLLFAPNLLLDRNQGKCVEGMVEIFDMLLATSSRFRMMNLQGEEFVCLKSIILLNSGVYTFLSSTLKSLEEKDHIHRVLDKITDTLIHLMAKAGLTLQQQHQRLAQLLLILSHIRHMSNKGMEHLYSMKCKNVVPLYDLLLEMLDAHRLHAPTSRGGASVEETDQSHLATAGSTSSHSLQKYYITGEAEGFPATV

[13] = target: Peroxisome proliferator-activated receptor gamma/Nuclear receptor coactivator 2 (Homo sapiens, UniProt P37231); type: functional;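 further: agonist potency for raising coactivator recruitment to the receptor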
Sequence of Peroxisome proliferator-activated receptor gamma/Nuclear receptor coactivator 2 (P37231 whole entry): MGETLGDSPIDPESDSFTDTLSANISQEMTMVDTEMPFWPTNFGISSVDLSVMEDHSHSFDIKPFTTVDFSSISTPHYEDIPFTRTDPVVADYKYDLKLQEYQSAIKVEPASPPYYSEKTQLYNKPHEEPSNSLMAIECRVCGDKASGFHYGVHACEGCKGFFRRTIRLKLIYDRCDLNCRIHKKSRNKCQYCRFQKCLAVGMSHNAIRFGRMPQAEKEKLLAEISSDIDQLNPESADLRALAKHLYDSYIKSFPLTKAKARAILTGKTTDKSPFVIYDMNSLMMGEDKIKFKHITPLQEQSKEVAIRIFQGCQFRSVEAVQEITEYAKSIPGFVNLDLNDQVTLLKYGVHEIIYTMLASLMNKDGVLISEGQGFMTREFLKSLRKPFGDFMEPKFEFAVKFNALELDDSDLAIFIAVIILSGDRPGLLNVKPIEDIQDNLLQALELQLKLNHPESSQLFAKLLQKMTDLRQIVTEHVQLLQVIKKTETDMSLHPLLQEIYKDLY
Sequence of Peroxisome proliferator-activated receptor gamma/Nuclear receptor coactivator 2 (Q15596 whole entry, further chain): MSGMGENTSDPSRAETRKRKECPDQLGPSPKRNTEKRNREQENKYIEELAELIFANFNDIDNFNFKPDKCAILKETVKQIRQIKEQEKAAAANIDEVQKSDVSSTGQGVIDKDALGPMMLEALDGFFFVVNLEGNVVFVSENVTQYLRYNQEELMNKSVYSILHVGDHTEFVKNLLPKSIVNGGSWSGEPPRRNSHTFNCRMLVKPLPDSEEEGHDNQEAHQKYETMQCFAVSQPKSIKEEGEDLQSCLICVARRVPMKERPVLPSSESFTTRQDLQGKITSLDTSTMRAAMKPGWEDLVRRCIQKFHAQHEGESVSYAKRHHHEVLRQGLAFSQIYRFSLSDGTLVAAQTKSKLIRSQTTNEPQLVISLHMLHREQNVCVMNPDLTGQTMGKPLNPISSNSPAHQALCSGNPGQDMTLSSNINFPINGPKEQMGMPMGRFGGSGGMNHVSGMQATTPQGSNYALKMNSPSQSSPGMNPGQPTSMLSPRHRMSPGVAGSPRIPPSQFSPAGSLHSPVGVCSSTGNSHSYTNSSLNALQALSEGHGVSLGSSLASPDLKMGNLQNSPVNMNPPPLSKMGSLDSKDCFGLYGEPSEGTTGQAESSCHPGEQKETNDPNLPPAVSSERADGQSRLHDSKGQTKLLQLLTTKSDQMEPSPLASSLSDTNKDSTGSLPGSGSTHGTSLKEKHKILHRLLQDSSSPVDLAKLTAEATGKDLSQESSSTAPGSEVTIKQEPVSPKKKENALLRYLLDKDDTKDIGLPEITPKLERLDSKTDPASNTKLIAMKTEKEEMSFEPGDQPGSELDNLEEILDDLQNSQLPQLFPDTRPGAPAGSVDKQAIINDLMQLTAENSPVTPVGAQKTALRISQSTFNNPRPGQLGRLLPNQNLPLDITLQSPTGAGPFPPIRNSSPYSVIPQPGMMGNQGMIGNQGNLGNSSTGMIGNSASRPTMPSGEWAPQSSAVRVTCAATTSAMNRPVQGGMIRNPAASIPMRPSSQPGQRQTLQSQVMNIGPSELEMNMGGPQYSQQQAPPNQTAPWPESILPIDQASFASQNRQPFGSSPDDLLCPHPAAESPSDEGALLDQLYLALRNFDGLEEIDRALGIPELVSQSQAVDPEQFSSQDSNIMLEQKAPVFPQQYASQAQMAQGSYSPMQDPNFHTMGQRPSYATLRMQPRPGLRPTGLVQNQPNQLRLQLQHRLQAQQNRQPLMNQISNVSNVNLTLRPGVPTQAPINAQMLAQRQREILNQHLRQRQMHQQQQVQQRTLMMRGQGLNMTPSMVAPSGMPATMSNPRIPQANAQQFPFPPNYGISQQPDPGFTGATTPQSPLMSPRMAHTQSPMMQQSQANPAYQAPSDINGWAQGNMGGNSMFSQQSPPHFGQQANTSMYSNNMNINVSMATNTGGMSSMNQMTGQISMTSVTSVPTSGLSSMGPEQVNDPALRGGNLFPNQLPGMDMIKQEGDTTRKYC

[14] = target: Peroxisome proliferator-activated receptor gamma/Nuclear receptor coactivator 1 (Homo sapiens, UniProt P37231); type: functional;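 further: agonist potency as compounds enhance coactivator SRC-1 recruitment to PPARgamma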
[15] = target: Peroxisome proliferator-activated receptor gamma/Nuclear receptor coactivator 3 (Homo sapiens, UniProt P37231); type: functional;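 further: agonist potency for raising coactivator recruitment to the receptor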
Sequence of Peroxisome proliferator-activated receptor gamma/Nuclear receptor coactivator 3 (P37231 whole entry): as the sequence (P37231 whole entry) above
Sequence of Peroxisome proliferator-activated receptor gamma/Nuclear receptor coactivator 3 (Q9Y6Q9 whole entry, further chain): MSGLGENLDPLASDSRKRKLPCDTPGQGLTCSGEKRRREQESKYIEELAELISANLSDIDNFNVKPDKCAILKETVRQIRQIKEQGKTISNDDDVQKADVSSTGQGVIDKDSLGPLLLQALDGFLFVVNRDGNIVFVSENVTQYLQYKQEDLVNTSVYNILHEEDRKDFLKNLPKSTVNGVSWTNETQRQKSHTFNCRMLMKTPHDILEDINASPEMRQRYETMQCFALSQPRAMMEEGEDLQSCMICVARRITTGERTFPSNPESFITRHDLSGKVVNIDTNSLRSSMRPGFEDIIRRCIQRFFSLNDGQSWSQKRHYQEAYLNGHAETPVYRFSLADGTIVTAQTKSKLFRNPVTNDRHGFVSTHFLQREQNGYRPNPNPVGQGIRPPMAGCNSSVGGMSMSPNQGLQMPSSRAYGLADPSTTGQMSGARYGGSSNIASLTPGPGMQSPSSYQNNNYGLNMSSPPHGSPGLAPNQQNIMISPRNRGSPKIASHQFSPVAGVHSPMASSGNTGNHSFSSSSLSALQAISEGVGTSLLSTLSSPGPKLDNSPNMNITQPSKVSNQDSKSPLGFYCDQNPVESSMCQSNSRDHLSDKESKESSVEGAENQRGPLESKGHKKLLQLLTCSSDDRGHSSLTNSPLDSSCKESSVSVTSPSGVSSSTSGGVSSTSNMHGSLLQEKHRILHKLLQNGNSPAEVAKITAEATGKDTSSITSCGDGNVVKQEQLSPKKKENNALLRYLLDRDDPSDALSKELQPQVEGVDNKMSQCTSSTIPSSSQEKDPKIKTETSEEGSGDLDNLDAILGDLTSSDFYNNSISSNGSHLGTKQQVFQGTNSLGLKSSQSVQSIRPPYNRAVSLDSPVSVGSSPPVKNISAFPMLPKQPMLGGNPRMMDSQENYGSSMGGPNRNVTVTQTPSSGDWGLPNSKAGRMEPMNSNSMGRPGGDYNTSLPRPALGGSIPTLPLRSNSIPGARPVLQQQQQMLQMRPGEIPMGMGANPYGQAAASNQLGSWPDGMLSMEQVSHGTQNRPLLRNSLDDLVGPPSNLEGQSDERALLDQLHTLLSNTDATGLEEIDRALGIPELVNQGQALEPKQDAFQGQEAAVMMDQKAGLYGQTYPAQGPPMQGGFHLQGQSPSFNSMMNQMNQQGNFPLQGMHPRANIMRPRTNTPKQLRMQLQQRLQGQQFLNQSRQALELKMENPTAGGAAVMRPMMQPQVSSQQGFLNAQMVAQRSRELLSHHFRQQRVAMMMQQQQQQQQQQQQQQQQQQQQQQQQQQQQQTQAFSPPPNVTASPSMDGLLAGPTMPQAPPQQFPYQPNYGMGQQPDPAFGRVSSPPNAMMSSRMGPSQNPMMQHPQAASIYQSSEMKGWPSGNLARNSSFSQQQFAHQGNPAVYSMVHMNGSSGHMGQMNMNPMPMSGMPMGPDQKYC

[16] = target: Cytochrome P450 2D6 (Homo sapiens, UniProt P10635); experiment: qHTS Assay for Inhibitors and Substrates of Cytochrome P450 2D6. [Related pubchem assays: 410 ]; type: ADME; settings: read-out: Potency
Sequence of Cytochrome P450 2D6 (P10635 whole entry): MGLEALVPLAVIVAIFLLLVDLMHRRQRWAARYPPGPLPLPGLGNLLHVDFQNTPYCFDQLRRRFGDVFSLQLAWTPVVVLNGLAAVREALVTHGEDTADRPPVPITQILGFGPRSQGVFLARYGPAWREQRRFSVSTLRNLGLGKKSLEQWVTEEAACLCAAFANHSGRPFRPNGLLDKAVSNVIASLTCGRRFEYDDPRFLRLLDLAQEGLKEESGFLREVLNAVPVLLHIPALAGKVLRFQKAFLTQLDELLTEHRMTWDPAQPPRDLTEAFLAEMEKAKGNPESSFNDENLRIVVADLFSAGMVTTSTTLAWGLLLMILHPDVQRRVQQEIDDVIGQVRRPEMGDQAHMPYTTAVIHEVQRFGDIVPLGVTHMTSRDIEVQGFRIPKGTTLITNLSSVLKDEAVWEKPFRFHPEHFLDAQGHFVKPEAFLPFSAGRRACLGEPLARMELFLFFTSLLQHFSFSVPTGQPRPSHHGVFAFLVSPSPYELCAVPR

[17] = target: Cytochrome P450 2C9 (Homo sapiens, UniProt P11712); settings: Potency
Sequence of Cytochrome P450 2C9 (P11712 whole entry): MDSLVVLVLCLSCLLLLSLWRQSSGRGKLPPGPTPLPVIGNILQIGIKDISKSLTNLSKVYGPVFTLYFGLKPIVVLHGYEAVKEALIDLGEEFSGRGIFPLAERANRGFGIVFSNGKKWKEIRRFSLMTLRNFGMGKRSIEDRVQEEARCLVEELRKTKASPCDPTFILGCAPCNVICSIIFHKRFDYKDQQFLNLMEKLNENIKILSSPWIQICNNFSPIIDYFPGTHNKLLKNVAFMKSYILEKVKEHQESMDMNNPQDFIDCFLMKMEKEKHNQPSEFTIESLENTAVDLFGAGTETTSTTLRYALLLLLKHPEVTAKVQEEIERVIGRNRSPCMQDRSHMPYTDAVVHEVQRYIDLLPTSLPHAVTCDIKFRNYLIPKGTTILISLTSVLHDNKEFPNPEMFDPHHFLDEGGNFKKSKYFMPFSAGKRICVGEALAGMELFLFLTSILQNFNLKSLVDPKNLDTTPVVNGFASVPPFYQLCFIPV

[18] = NIH-3T3 fibroblast cytotoxicity, dose response, cytotoxicity control, cell-based, fluorescence, Alamar Blue, secondary assay (AID 2327); type: functional;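 further: NIH-3T3 mouse fibroblasts cultured with fluconazole at 8 µg/mL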
[19] = target: Sphingosine 1-phosphate receptor 2 (Homo sapiens, UniProt O95136); experiment: Dose Response Cell Based Assay for Antagonists of the S1P2 Receptor. [Related pubchem assays: 856, 736 ]; type: functional
[20] = C. albicans growth with fluconazole, confirmation, fluorescence, retest (AID 2467); type: functional, cell-based
[21] = Luminescence-based dose response cell-based high throughput screening assay for cytotoxic compounds using the IEC-6 intestinal epithelial cell line. [Related pubchem assays: 1858 (Summary AID.), 1825 (Counterscreen.), 1907 (Confirmation screen.)]; type: functional
[22] = target: Cytochrome P450 2C19 (Homo sapiens, UniProt P33261); experiment: Cytochrome panel assay with activity outcomes. Panel member name: p450-cyp2c19 Compounds with AC50 equal or less than 10 uM are considered active; type: functional; settings: read-out: AC50
[23] = Shn3 3'UTR reporter inhibitors, dose response, cell-based, Clone20 osteoblasts, firefly luciferase, cherry-picked (AID 624132); type: functional;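 further: firefly luciferase luminescence from reporter carrying the Shn3 3'UTR in osteoblasts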
[24] = HepG2 cell cytotoxicity, dose response, cytotoxicity control for Shn3 inhibitor project, CellTiter-Glo, cherry-picked (AID 624134); type: functional, cell-based
[25] = control 3'UTR Renilla luciferase suppression, dose response, counter-screen for Shn3 inhibitor project, cell-based, Clone20-Shn3RL, cherry-picked (AID 624133); type: functional
[26] = target: T2, Cytochrome P450 1A2 (Homo sapiens, UniProt P05177);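 further: PubChem cytochrome P450 panel assay, CYP1A2 panel member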
T2 sequence (P05177 whole entry): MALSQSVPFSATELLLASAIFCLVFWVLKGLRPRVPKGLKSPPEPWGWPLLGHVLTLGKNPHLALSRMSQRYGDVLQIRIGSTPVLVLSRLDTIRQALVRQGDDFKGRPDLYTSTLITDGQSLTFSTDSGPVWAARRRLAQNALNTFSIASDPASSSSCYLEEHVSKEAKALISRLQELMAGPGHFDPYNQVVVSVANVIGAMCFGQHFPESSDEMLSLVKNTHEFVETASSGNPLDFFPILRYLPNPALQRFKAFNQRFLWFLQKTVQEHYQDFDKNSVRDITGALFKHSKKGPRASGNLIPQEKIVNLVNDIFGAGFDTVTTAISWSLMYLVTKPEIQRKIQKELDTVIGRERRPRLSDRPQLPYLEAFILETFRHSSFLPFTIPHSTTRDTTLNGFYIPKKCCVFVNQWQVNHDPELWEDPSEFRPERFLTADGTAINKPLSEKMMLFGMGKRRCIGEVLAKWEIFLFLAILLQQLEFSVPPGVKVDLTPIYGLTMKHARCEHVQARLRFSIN

[27] = target: Cytochrome P450 3A4 (Homo sapiens, UniProt P08684);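 further: CYP3A4 tested as one member of a cytochrome P450 panel screen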

CCOC(=O)c1sc(NC(=O)c2cc3ccccc3o2)nc1C
IC50 [1]: > 39.8 µM (not active)

C/C(N)=C(/C#N)C(=O)COC(=O)c1cc2c(s1)CCCC2
IC50 [2]: 21.3 µM (active)

C#Cc1ccc([C@@H]2C=C(C(=O)N3CCN(Cc4ccccc4)CC3)O[C@H](OCCCCO)C2)cc1
EC50 [3]: 9.88 µM (active) | EC50 [4]: 9.17 µM (active) | EC50 [5]: 7.64 µM (active) | IC50 [1]: > 39.8 µM (not active) | IC50 [6]: > 80 µM (inactive) | AC50 [7]: 1.01 µM (active)

CCCCOc1ccc(/C=N/Nc2cc(N3CCOCC3)nc(C)n2)cc1
CC50 [8]: > 40 µM (active) | EC50 [9]: 2.46 µM (active) | EC50 [10]: > 60 µM (not active)

O=C(/C=C/c1ccc(Cl)cc1Cl)NCc1ccncc1
EC50 [11]: > 50 µM (active)

COC(=O)Oc1c(Br)c(=O)oc2ccccc12
IC50 [12]: > 50 µM (not active)

CCc1ccc(OCC(=O)NNC(=O)CSc2ncnc3sc(C)c(C)c23)cc1
EC50 [13]: 25.7 µM (not active) | EC50 [14]: 28.8 µM (not active) | EC50 [15]: 33.8 µM (not active)

CC(C)(C)c1nnc(NC(=O)CN2C(=O)C3C4C=CC(C4)C3C2=O)s1 (stereo not given)
EC50 [13]: > 79.4 µM (not active) | EC50 [14]: > 79.4 µM (not active) | EC50 [15]: > 79.4 µM (not active)

COc1cc(OC)cc([C@H](CNc2ncnc3c2ncn3[C@@H]2O[C@@H](CO)[C@H](O)[C@@H]2O)c2ccccc2C)c1
AC50 [16]: 39.8 µM (inconclusive) | AC50 [17]: 0.0158 µM (inconclusive)

COc1ccc(OC)c(-c2cc(C(=O)Nc3c(C)nn(Cc4ccccc4C)c3C)no2)c1
CC50 [8]: 34.7 µM (active)

Cn1c2c(c(=O)n(C)c1=O)C(C(F)(F)F)(C(F)(F)F)NC(c1ccc(Cl)cc1)=N2
EC50 [18]: 2.61 µM (active) | EC50 [3]: 0.383 µM (active) | IC50 [19]: 3.79 µM (active) | EC50 [4]: 3.25 µM (active) | EC50 [5]: 2.83 µM (active) | EC50 [20]: 0.628 µM (active) | IC50 [21]: 2.72 µM (active) | IC50 [6]: > 80 µM (inactive) | AC50 [22]: 2.82 µM (inconclusive) | AC50 [7]: 0.983 µM (active) | AC50 [23]: 1.47 µM (active) | AC50 [24]: 0.756 µM (active) | AC50 [25]: 2.03 µM (active) | AC50 [26]: 17.8 µM (inconclusive) | AC50 [27]: 15.8 µM (inconclusive)

O=C(N/N=C/C1CC=CCC1)c1cc(Br)ccc1O (stereo not given)
EC50 [11]: > 50 µM (active)

CC(C)C[C@@H](CC(=O)N[C@@H](CCCN)CC(=O)N[C@@H]1CCNC[C@H]1C(=O)N[C@H](CC(=O)N[C@@H](CCC(=O)O)CC(=O)O)CC(C)C)NC(=O)[C@@H]1CCCC[C@H]1N
AC50 [17]: 12.6 µM (inconclusive)

CC12C=C(/C=C/C=C/c3ccccc3)C(C)(C1)C(/C=C/c1ccccc1)CC2=O (stereo not given)
AC50 [16]: 3.16 µM (inconclusive)
